This note sets out measurements from PubChem BioAssay (NCI).

Test systems include HT29 colon; RPMI-8226 leukemia; NCI-H23 lung; NCI-H460 lung; RXF 393 renal; HCT-15 colon; SW-620 colon; OVCAR-3 ovarian; SF-268 CNS; MOLT-4 leukemia; SK-MEL-28 melanoma; HL-60(TB) leukemia; SNB-75 CNS; SK-MEL-2 melanoma; SN12C renal; NCI/ADR-RES ovarian; MDA-MB-435; PC-3 prostate; MDA-MB-231 breast.
Holding throughout (experiment): NCI-60 cell line screen, 48 h

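Test compounds were applied to cells in 96-well plates for 48 hours at 5 doses. TGI: total growth inhibition.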

With `COC1=CC(=O)C2C(C1=O)C(c1ccc(Cl)cc1)[C@@H]2C` (some centres undefined), the TGI was over 100 µM in the test with HT29 colon; over 100 µM in the test on RPMI-8226 leukemia; over 100 µM with NCI-H23 lung; 75.6 µM with NCI-H460 lung; 79.1 µM with RXF 393 renal; 31.9 µM with HCT-15 colon. Also, the TGI with SW-620 colon is 74.9 µM; with OVCAR-3 ovarian it was over 100 µM; with SF-268 CNS, 92.7 µM; in the test with MOLT-4 leukemia it was 81.7 µM; with SK-MEL-28 melanoma, over 100 µM; in the test with HL-60(TB) leukemia, 55.7 µM. In addition, the TGI in the test on SNB-75 CNS was 64.8 µM; with SK-MEL-2 melanoma it was over 100 µM.

Regarding `COC(=O)C(Cc1nc2ccccc2[nH]c1=O)C(=O)C(=O)Nc1ccc(F)cc1` (centres undefined), the TGI in the test with HT29 colon was over 100 µM; in the test with NCI-H23 lung, over 100 µM; in the test with NCI-H460 lung it was over 100 µM; with RXF 393 renal, 47.1 µM; in the test with HCT-15 colon, over 100 µM; with SW-620 colon, 42.8 µM. The TGI with OVCAR-3 ovarian is over 100 µM; in the test with SF-268 CNS it was 56.4 µM; in the test with MOLT-4 leukemia, over 100 µM; with SK-MEL-28 melanoma it was 89.1 µM; in the test on HL-60(TB) leukemia it was over 100 µM; in the test with SNB-75 CNS, over 100 µM. Besides, the TGI in the test on SN12C renal and in the test with SK-MEL-2 melanoma was over 100 µM each time.

On to `C=C(C)CC(C)(c1cc2ccccc2n1C)N1CCOCC1` (centres undefined), for which the TGI in the test with HT29 colon, in the test with NCI-H23 lung, with NCI-H460 lung, with RXF 393 renal, with HCT-15 colon and in the test with SW-620 colon was over 100 µM in each case. In addition, the TGI with OVCAR-3 ovarian, in the test with SF-268 CNS, in the test with MOLT-4 leukemia, in the test on SK-MEL-28 melanoma, in the test on HL-60(TB) leukemia and in the test on SNB-75 CNS was over 100 µM in each case. The TGI with SN12C renal and in the test with SK-MEL-2 melanoma was over 100 µM throughout.

With `Cc1c/c(=N/NC(=O)c2ccncc2)n2nc(N)sc2n1`, the TGI in the test with NCI/ADR-RES ovarian, with MDA-MB-435, in the test with HT29 colon, in the test on RPMI-8226 leukemia, in the test with PC-3 prostate and with MDA-MB-231 breast was over 100 µM throughout. Besides, the TGI in the test with NCI-H23 lung, in the test with NCI-H460 lung, with RXF 393 renal, in the test on HCT-15 colon, with SW-620 colon and with OVCAR-3 ovarian was over 100 µM each time. The TGI in the test on MOLT-4 leukemia, with SK-MEL-28 melanoma, in the test on HL-60(TB) leukemia, with SNB-75 CNS, in the test on SN12C renal and in the test on SK-MEL-2 melanoma was over 100 µM throughout.

As to `CCOC(=O)c1c2ccc(/C=C/c3ccccc3)ccc-2c(C(=O)OCC)c1N`, the TGI in the test on HT29 colon, in the test with NCI-H23 lung, in the test on NCI-H460 lung, with RXF 393 renal, in the test with HCT-15 colon and in the test on SW-620 colon was over 100 µM throughout. For the same compound, the TGI is over 100 µM in the test with OVCAR-3 ovarian; over 100 µM in the test on SF-268 CNS; over 100 µM in the test on MOLT-4 leukemia; over 100 µM in the test on SK-MEL-28 melanoma; over 100 µM with HL-60(TB) leukemia; 99.4 µM in the test with SNB-75 CNS. Also, the TGI with SK-MEL-2 melanoma was over 100 µM.

Take `O=C(c1ccccc1)N1CCC(Nc2nccs2)O1` (centres undefined): the TGI in the test with NCI/ADR-RES ovarian, in the test with MDA-MB-435, in the test on HT29 colon, in the test on RPMI-8226 leukemia, in the test with PC-3 prostate and with MDA-MB-231 breast was over 10 µM in each case. Further, the TGI in the test with NCI-H23 lung, in the test with NCI-H460 lung, with RXF 393 renal, in the test on HCT-15 colon, in the test with SW-620 colon and in the test with OVCAR-3 ovarian was over 10 µM in each case. Also, the TGI with SF-268 CNS, with MOLT-4 leukemia, with SK-MEL-28 melanoma, in the test on HL-60(TB) leukemia, in the test with SNB-75 CNS and in the test with SN12C renal was over 10 µM throughout. Also, the TGI in the test on SK-MEL-2 melanoma was over 10 µM.

Take `CCn1c(O)c(C=Nc2ccccc2)s/c1=N/Nc1nc(-c2ccc(O)c(O)c2)cs1`: the TGI with NCI/ADR-RES ovarian was over 100 µM; with HT29 colon, over 100 µM; with RPMI-8226 leukemia, 46.6 µM; with PC-3 prostate it was over 100 µM; in the test with MDA-MB-231 breast, over 100 µM; in the test on NCI-H23 lung it was over 100 µM. In addition, the TGI in the test on NCI-H460 lung was over 100 µM; with RXF 393 renal it was over 100 µM; in the test with HCT-15 colon, over 100 µM; in the test on SW-620 colon, over 100 µM; with OVCAR-3 ovarian, 49 µM; with SF-268 CNS, over 100 µM. The TGI was 92.2 µM with MOLT-4 leukemia; over 100 µM in the test on SK-MEL-28 melanoma; 6.04 µM in the test on HL-60(TB) leukemia; over 100 µM in the test with SNB-75 CNS; over 100 µM with SN12C renal; over 100 µM with SK-MEL-2 melanoma.

With `CSc1nc2nc(C(O)C(O)C(O)CO)cnc2c(=O)[nH]1` (centres undefined), the TGI with HT29 colon, in the test with RPMI-8226 leukemia, in the test with NCI-H23 lung, in the test with NCI-H460 lung, in the test with RXF 393 renal and in the test with HCT-15 colon was over 100 µM in each case. Besides, the TGI in the test with SW-620 colon, with OVCAR-3 ovarian, in the test with SF-268 CNS, with MOLT-4 leukemia, with SK-MEL-28 melanoma and with HL-60(TB) leukemia was over 100 µM in each case. The TGI with SNB-75 CNS, in the test with SN12C renal and with SK-MEL-2 melanoma was over 100 µM each time.

In the case of `CC(=O)NC(CCCNC(=O)OCc1ccccc1)C(=O)O` (centres undefined), the TGI in the test with HT29 colon, with RPMI-8226 leukemia, with NCI-H23 lung, in the test with NCI-H460 lung, in the test with RXF 393 renal and with HCT-15 colon was over 100 µM in each case. Further, the TGI with SW-620 colon, in the test with OVCAR-3 ovarian, in the test on SF-268 CNS, with MOLT-4 leukemia, in the test with SK-MEL-28 melanoma and in the test on SNB-75 CNS was over 100 µM in each case. Also, the TGI in the test on SN12C renal and with SK-MEL-2 melanoma was over 100 µM throughout.
